Laboratory results from patent publication US20090311237A1, “Combination therapy using a soluble hyaluronidase and a bisphosphonate” (priority 2008, published 2009).
Several values for one entry are separate records, joined by “and”; a condition that tells them apart may be missing. Equal entries are not always repeated. Where two headings read alike, the source gives them in different places.

Assay: Phase 1 Stage 1 clinical pharmacokinetics of SC ZA co-administered with rHuPH20
Assay type: in vivo, human
Settings: for half-life / AUC(0-t) / Cmax / AUC(0-inf) / Tmax: human, serum; for half-life: read-out: T½ λz (converted); for AUC(0-inf): read-out: AUC (0-inf); for Tmax: read-out: Tmax
Description: A pharmacokinetic study of zoledronic acid (ZA) co-administered with rHuPH20 in human subjects was conducted. The primary objective of the study was to determine the bioavailability of zoledronic acid dosed via subcutaneous (SC) co-administration with human recombinant hyaluronidase PH20 (rHuPH20). […] The patients were administered the prescribed dosage formulations as follows: Cohorts 1-5 were administered a single subcutaneous infusion in a dosage volume of 100 ml at a rate of 3 mL/min. […] The dosing solution is administered via needle or catheter into the SC space of the left anterior thigh (midway between the anterior iliac crest and the cephalad border of the patella). For cohorts 1-5, the dosing solutions were administered by a controlled rate infusion pump at approximately 3 mL/minute. […] The dosing solutions were administered by syringe push bolus injection. […] Serum concentration of ZA was determined using a qualified LC-MS-MS assay after derivatization with diazomethane (Zhu, L S et al. (2006) Rapid Commun. […] The assay range was from 2.0 to 400 ng/mL with a lower limit of quantitation (LLOQ) at 2.0 ng/mL. […] Non-compartmental analysis was used for derivation of primary and secondary pharmacokinetic (PK) parameters. […] Summary statistics (mean, standard deviation, and median) were calculated using JMP or Microsoft Excel.

[1] = ZA 2 mg SC + 24000 U rHuPH20, mean, n=3
[2] = ZA 2 mg SC + 24000 U rHuPH20, median, n=3
[3] = ZA 2 mg SC, 100 mL, 24000 Units rHuPH20, n=3
[4] = ZA 5 mg SC + 24000 U rHuPH20, individual subjects
[5] = ZA 5 mg SC + 24000 U rHuPH20, mean, n=3
[6] = ZA 5 mg SC + 24000 U rHuPH20, median, n=3
[7] = ZA 5 mg SC, 100 mL, 24000 Units rHuPH20, n=3
[8] = ZA 0.25-5 mg SC, 100 mL, 24000 Units rHuPH20, n=15
[9] = sc, 0.0196 mg/kg, Subj 27, ZA 0.0196 mg/kg SC, inf […], PH20 23976 U
[10] = sc, 0.0339 mg/kg, Subj 29, ZA 0.0339 mg/kg SC, inf 0.556 hr, PH20 24000 U
[11] = sc, 0.0608 mg/kg, Subj 68, ZA 0.0608 mg/kg SC, inf […], PH20 2880 U
[12] = sc, 0.0653 mg/kg, Subj 41, ZA 0.0653 mg/kg SC, inf […], PH20 12216 U
[13] = sc, 0.0691 mg/kg, Subj 39, ZA 0.0691 mg/kg SC, inf 0.552 hr, PH20 23856 U
[14] = sc, 0.0706 mg/kg, Subj 38, ZA 0.0706 mg/kg SC, inf 0.554 hr, PH20 23952 U
[15] = sc, 0.0717 mg/kg, Subj 67, ZA 0.0717 mg/kg SC, inf […], PH20 2880 U
[16] = sc, 0.0776 mg/kg, Subj 70, ZA 0.0776 mg/kg SC, inf […], PH20 2928 U
[17] = sc, 0.0781 mg/kg, Subj 71, ZA 0.0781 mg/kg SC, inf […], PH20 6000 U

Compound: O=P(O)(O)C(O)(Cn1ccnc1)P(=O)(O)O [ZA, 1-hydroxy-2-(1H-imidazol-1-yl)ethylidene-1,1-bisphosphonic acid]
- T½elim (ZA 2 mg SC + 24000 U rHuPH20, individual subjects): 12.72 h (2×) and 22.02 h
- AUC (0-∞)/D [1]: 0.00791 kg·h/mL
- Cmax/D [1]: 0.00176 kg/mL
- T½elim [1]: 15.82 h
- AUC (0-∞)/D [2]: 0.00809 kg·h/mL
- Cmax/D [2]: 0.00175 kg/mL
- T½elim [2]: 12.72 h
- MAT (mean absorption time = SC MRT − IV MRT) (ZA 2 mg SC, 100 mL, 24000 Units rHuPH20, individual subjects): 0.47 h and 0.94 h and 1.39 h
- MAT, Mean for the dose group [3]: 0.93 h
- MAT, Median for the dose group [3]: 0.94 h
- AUC (0-12h) [4]: 477.36 ng·h/mL and 575.89 ng·h/mL
- AUC (0-∞) [4]: 729.31 ng·h/mL
- AUC (0-∞)/D [4]: 0.00789 kg·h/mL and 0.00901 kg·h/mL and 0.01049 kg·h/mL
- Cmax/D [4]: 0.00167 kg/mL and 0.00165 kg/mL and 0.00211 kg/mL
- MRT [4]: 13.81 h
- T½elim [4]: 23.36 h and 24.45 h and 26.05 h
- AUC (0-∞)/D [5]: 0.00913 kg·h/mL
- Cmax/D [5]: 0.00181 kg/mL
- T½elim [5]: 24.62 h
- AUC (0-∞)/D [6]: 0.00901 kg·h/mL
- Cmax/D [6]: 0.00167 kg/mL
- T½elim [6]: 24.45 h
- MAT (mean absorption time = SC MRT − IV MRT) (ZA 5 mg SC, 100 mL, 24000 Units rHuPH20, individual subjects): 1.74 h and 4.61 h and 3.46 h
- MAT, Mean for the dose group [7]: 3.27 h
- MAT, Median for the dose group [7]: 3.46 h
- MAT, Mean for all dose groups [8]: 1.64 h
- MAT, Median for all dose groups [8]: 1.39 h
- half-life (0.082 mg/kg, Subj 63, ZA 0.0820 mg/kg SC, inf 0.250 hr, PH20 6000 U): 20.5 h
- AUC(0-t) (sc, 0.0196 mg/kg, AUC (0-12 h), Subj 27, ZA 0.0196 mg/kg SC, inf […], PH20 23976 U): 104 ng·h/mL
- AUC(0-t) (sc, 0.0196 mg/kg, AUC (0-24 h), Subj 27, ZA 0.0196 mg/kg SC, inf […], PH20 23976 U): 116 ng·h/mL
- AUC(0-t) (sc, 0.0196 mg/kg, AUC (0-48 h), Subj 27, ZA 0.0196 mg/kg SC, inf […], PH20 23976 U): 119 ng·h/mL
- Cmax [9]: 25 ng/mL
- AUC(0-inf) [9]: 120 ng·h/mL
- Tmax [9]: 0.72 h
- half-life (sc, 0.0196 mg/kg): 6.53 h
- AUC(0-t) (sc, 0.0339 mg/kg, AUC (0-12 h), Subj 29, ZA 0.0339 mg/kg SC, inf 0.556 hr, PH20 24000 U): 217 ng·h/mL
- AUC(0-t) (sc, 0.0339 mg/kg, AUC (0-24 h), Subj 29, ZA 0.0339 mg/kg SC, inf 0.556 hr, PH20 24000 U): 231 ng·h/mL
- AUC(0-t) (sc, 0.0339 mg/kg, AUC (0-48 h), Subj 29, ZA 0.0339 mg/kg SC, inf 0.556 hr, PH20 24000 U): 236 ng·h/mL
- Cmax [10]: 62.8 ng/mL
- AUC(0-inf) [10]: 241 ng·h/mL
- Tmax [10]: 1.29 h
- AUC(0-t) (sc, 0.0608 mg/kg, AUC (0-12 h), Subj 68, ZA 0.0608 mg/kg SC, inf […], PH20 2880 U): 456 ng·h/mL
- AUC(0-t) (sc, 0.0608 mg/kg, AUC (0-24 h), Subj 68, ZA 0.0608 mg/kg SC, inf […], PH20 2880 U): 503 ng·h/mL
- AUC(0-t) (sc, 0.0608 mg/kg, AUC (0-48 h), Subj 68, ZA 0.0608 mg/kg SC, inf […], PH20 2880 U): 557 ng·h/mL
- Cmax [11]: 144 ng/mL
- AUC(0-inf) [11]: 630 ng·h/mL
- Tmax [11]: 1 h
- half-life (sc, 0.0608 mg/kg): 27.9 h
- AUC(0-t) (sc, 0.0653 mg/kg, AUC (0-12 h), Subj 41, ZA 0.0653 mg/kg SC, inf […], PH20 12216 U): 487 ng·h/mL
- AUC(0-t) (sc, 0.0653 mg/kg, AUC (0-24 h), Subj 41, ZA 0.0653 mg/kg SC, inf […], PH20 12216 U): 531 ng·h/mL
- AUC(0-t) (sc, 0.0653 mg/kg, AUC (0-48 h), Subj 41, ZA 0.0653 mg/kg SC, inf […], PH20 12216 U): 597 ng·h/mL
- Cmax [12]: 141 ng/mL
- AUC(0-inf) [12]: 736 ng·h/mL
- Tmax [12]: 1.01 h
- half-life (sc, 0.0653 mg/kg): 42.8 h
- AUC(0-t) (sc, 0.0691 mg/kg, AUC (0-12 h), Subj 39, ZA 0.0691 mg/kg SC, inf 0.552 hr, PH20 23856 U): 574 ng·h/mL
- AUC(0-t) (sc, 0.0691 mg/kg, AUC (0-24 h), Subj 39, ZA 0.0691 mg/kg SC, inf 0.552 hr, PH20 23856 U): 619 ng·h/mL
- AUC(0-t) (sc, 0.0691 mg/kg, AUC (0-48 h), Subj 39, ZA 0.0691 mg/kg SC, inf 0.552 hr, PH20 23856 U): 667 ng·h/mL
- Cmax [13]: 147 ng/mL
- AUC(0-inf) [13]: 727 ng·h/mL
- Tmax [13]: 0.79 h
- half-life (sc, 0.0691 mg/kg): 26.1 h
- AUC(0-t) (sc, 0.0706 mg/kg, AUC (0-12 h), Subj 38, ZA 0.0706 mg/kg SC, inf 0.554 hr, PH20 23952 U): 477 ng·h/mL
- AUC(0-t) (sc, 0.0706 mg/kg, AUC (0-24 h), Subj 38, ZA 0.0706 mg/kg SC, inf 0.554 hr, PH20 23952 U): 524 ng·h/mL
- AUC(0-t) (sc, 0.0706 mg/kg, AUC (0-48 h), Subj 38, ZA 0.0706 mg/kg SC, inf 0.554 hr, PH20 23952 U): 580 ng·h/mL
- Cmax [14]: 117 ng/mL
- AUC(0-inf) [14]: 637 ng·h/mL
- Tmax [14]: 1.3 h
- AUC(0-t) (sc, 0.0717 mg/kg, AUC (0-12 h), Subj 67, ZA 0.0717 mg/kg SC, inf […], PH20 2880 U): 565 ng·h/mL
- AUC(0-t) (sc, 0.0717 mg/kg, AUC (0-24 h), Subj 67, ZA 0.0717 mg/kg SC, inf […], PH20 2880 U): 630 ng·h/mL
- AUC(0-t) (sc, 0.0717 mg/kg, AUC (0-48 h), Subj 67, ZA 0.0717 mg/kg SC, inf […], PH20 2880 U): 683 ng·h/mL
- Cmax [15]: 156 ng/mL
- AUC(0-inf) [15]: 725 ng·h/mL
- Tmax [15]: 0.74 h
- half-life (sc, 0.0717 mg/kg): 18.3 h
- AUC(0-t) (sc, 0.0776 mg/kg, AUC (0-12 h), Subj 70, ZA 0.0776 mg/kg SC, inf […], PH20 2928 U): 573 ng·h/mL
- AUC(0-t) (sc, 0.0776 mg/kg, AUC (0-24 h), Subj 70, ZA 0.0776 mg/kg SC, inf […], PH20 2928 U): 616 ng·h/mL
- AUC(0-t) (sc, 0.0776 mg/kg, AUC (0-48 h), Subj 70, ZA 0.0776 mg/kg SC, inf […], PH20 2928 U): 658 ng·h/mL
- Cmax [16]: 215 ng/mL
- AUC(0-inf) [16]: 690 ng·h/mL
- Tmax [16]: 0.68 h
- half-life (sc, 0.0776 mg/kg): 19.4 h
- AUC(0-t) (sc, 0.0781 mg/kg, AUC (0-12 h), Subj 71, ZA 0.0781 mg/kg SC, inf […], PH20 6000 U): 592 ng·h/mL
- AUC(0-t) (sc, 0.0781 mg/kg, AUC (0-24 h), Subj 71, ZA 0.0781 mg/kg SC, inf […], PH20 6000 U): 629 ng·h/mL
- AUC(0-t) (sc, 0.0781 mg/kg, AUC (0-48 h), Subj 71, ZA 0.0781 mg/kg SC, inf […], PH20 6000 U): 665 ng·h/mL
- Cmax [17]: 198 ng/mL
- AUC(0-inf) [17]: 693 ng·h/mL
- Tmax [17]: 0.88 h
